Assay results published in US9433663B2, “Mobilization of hematopoietic stem cells” (Children's Hospital Medical Center, priority 2008, dated 2016).

Legend:
LDBM cells [1] = test: CFU-adhesion assay of LDBM cells on fibronectin; format: cell-based, murine
Description: (§1) To shed light on potential roles of CASIN in HSPC mobilization, the effects of CASIN on Cdc42-related cellular functions was studied, including adhesion, migration, and F-actin polymerization of progenitor cells in 32D myeloid progenitors. […] SDF-1α stimulation causes a reorganization of F-actin into a cortical ring around the cells. […] Thirdly, to gain further insight into cellular specificity and efficacy of CASIN, and also to rule out possible toxic effects by CASIN, Cdc42-involved BM progenitor cell functions were examined, including proliferation, adhesion, migration, and F-actin polymerization, in Cdc42^+/+ cells in parallel with Cdc42^−/− cells. In line with additional studies in a Cdc42 conditional knockout mouse model as described herein, Cdc42^−/− LDBM cells have increased CFU-forming progenitors compared to those of Cdc42^+/+.
(§2) Murine LDBM cells from Cdc42^+/+ as well as Cdc42^−/− mice were used for CFU-adhesion/migration experiments as described previously. Briefly, for adhesion experiment, in the presence or absence of prior CASIN treatment at doses of 5 and 10 μM, 10^5 cells were plated onto each well of 48-well plates pre-coated with fibronectin fragment CH296, which contains integrin α4β1-binding site. Adherent cells then were harvested by cells dissociation buffer (Gibco, Carlsbad, Calif.), and further plated in CFU assay. […]

32D myeloid progenitors = test: transwell migration of 32D progenitors towards SDF1α; format: cell-based, murine; settings: dose-dependent manner
Description: as §1

Cdc42 = Cdc42 (Homo sapiens, UniProt P60953); test: nucleotide exchange: intersectin-induced association of mant-GDP with Cdc42; format: biochemical; settings: FIG. 1b
Cdc42, sequence (P60953 whole entry, species assumed): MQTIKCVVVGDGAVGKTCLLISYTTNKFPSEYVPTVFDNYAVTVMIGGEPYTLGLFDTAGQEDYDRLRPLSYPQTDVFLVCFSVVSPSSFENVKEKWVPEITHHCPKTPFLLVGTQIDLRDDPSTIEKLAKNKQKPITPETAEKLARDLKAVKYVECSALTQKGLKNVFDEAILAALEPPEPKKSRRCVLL
Description: For example, even at 10 times the IC50 of Cdc42, a 50% inhibition of the association of mant-GDP with Rac or Rho was not achieved.

[2] = test system: Lin^−c-Kit^+ BM progenitors; test: F-actin immunofluorescence in Lin−c-Kit+ BM progenitors; format: cell-based, murine; settings: double-sorted Lin^−c-Kit^+ BM progenitors; CASIN pre-treatment at 5 or 10 μM
Description: as §1
Cells then were stimulated with 100 ng/ml SDF-1α for 45 secs, and further stained with Rhodamine/Phalloidin for actin and DAPI for nucleus as described herein.

LDBM cells [3] = test: CFU-migration assay of LDBM progenitors towards SDF-1α; format: cell-based, murine
Description: as §1, §2

Cdc42WT/WT MEF cells = test: Example 7 adhesion, migration, actin polymerization in MEF cells; format: cell-based, mouse; settings: in vitro
Description: To further verify the specificity of CASIN on Cdc42 activity inhibition, adhesion, migration, Actin polymerization is evaluated in both Cdc42−/− and Cdc42WT/WT MEF cells under the following five groups: (1) Cdc42WT/WT cells without treatment; (2) Cdc42−/− cells without treatment; (3) Cdc42WT/WT cells treated with CASIN; (4) Cdc42WT/WT cells treated with control medium; (5) Cdc42−/− cells treated with CASIN, in order to verify that CASIN function through inhibiting Cdc42. similarly, activities of the down stream effectors of Cdc42, Rac, and Rho under the five groups are monitored by western blot as above.

LT-HSC = test: serial transplantation of CASIN-mobilized PB into NOD/SCID mice; format: in vivo
Description: Whether CASIN administration can induce mobilization of HSC/Ps to peripheral blood of C57Bl/6 mice, mimicking the phenotype observed in Cdc42 conditional knockout mice, was evaluated. First of all, mobilization of hematopoietic progenitor cells was examined by CFU-C assays functionally (FIG. 3a). […] Secondarily, to further explore the ability of CASIN to mobilize LT-HSC which is crucial for long-term repopulation of the mobilized cells, serial transplantations were carried out, where 20 million PB from CASIN-mobilized C57Bl/6 mice was transplanted into primary recipient of NOD/SCID mice, and subsequent secondary and tertiary transplants were finished as well using prior BMs (FIG. 3c). Donor chimerisms were assessed by using H2K^b congenic marker which is positive for donors of C57Bl/6 strain and negative for recipients of NOD/SCID strain. […] Therefore, the studies show CASIN can efficiently mobilize colony-forming hematopoietic progenitors and LT-HSCs with self-renewal and multi-lineage differentiation capacity. Thirdly, to further investigate the potential of CASIN to vacate the BM niche after mobilization, six-color staining of the BM cells was performed from C57Bl/6 mice with or without CASIN treatment followed by FACS analysis. […] Therefore, a transient decrease in BM and a concomitant increase in peripheral organs of HSCs would be beneficial to facilitating the subsequent HSC transplantation.
To functionally define the LT-HSC, serial transplantations of mobilized PB from C57Bl/6 mice into sublethally irradiated NOD/SCID mice were carried out. Briefly, 2×10^7 PB cells were harvested 40 hrs after CASIN mobilization, and subsequently transplanted to a sublethally irradiated primary recipient. Chimerisms of donor-derived cells in the BM and PB were monitored over time by FACS analysis of the congenic marker H2K^b. Subsequent secondary and tertiary transplantations were performed using prior BM cells, and monitored by FACS analysis as well.

**Q.** Which results are given for `OCCNC1CCCc2c1[nH]c1ccc(-c3ccccc3)cc21` (stereo not shown) [CASIN]?
**A.** adhesion of colony-forming progenitors to fibronectin surface (LDBM cells [1]; Cdc42^+/+ LDBM cells): dose-dependently inhibited; adhesion activity of Cdc42^−/− cells (LDBM cells [1]; Cdc42^−/− LDBM cells): did not have additive effects; migration of 32D progenitor cells towards SDF1α gradient (32D myeloid progenitors): significantly reduced migration; association of mant-GDP with Cdc42 induced by intersectin (Cdc42): dose-dependent inhibition; SDF-1α mediated reorganization of F-actin into cortical actin ring [2]: lost their capacities to reorganize F-actin into the cortical actin ring; directional migration capacity of Cdc42^−/− cells (LDBM cells [3]): did not affect; MEF cells' ability of adhesion, migration and actin polymerization (Cdc42WT/WT MEF cells): impairs; PB reconstitution of donor-derived cells in the primary recipient (LT-HSC; 1-3 mo post transplantation of PB from CASIN-mobilized mice): reconstituted considerable percentages of total PB; multi-lineage differentiation of engrafted donor cells (LT-HSC; BM and PB of the primary recipients): had undergone multi-lineage differentiations; engraftment of donor-derived cells in BM (LT-HSC; primary through tertiary transplantation): engraftment of donor-derived cells was detected
